One data set has as its system SHSY cells. The experiment in a line: MTS test, viability of SHSY cells. Conditions: MTS reduction. Format: cell-based. The method, then: The viability of SHSY cells is determined by measuring the MTS reduction as described in (6).
For a further data set, the target named is CDK5 (Homo sapiens (Human), UniProt Q00535). Kind of data set: Enzyme inhibition test, radiolabeled ATP, CDK5. The following applies: dose-response curves. Type of data set: biochemical. The method, then: (§1) The tests are carried out as follows: the enzyme to be assayed was purified, for example by affinity chromatography on agarose beads. The catalytic activity was measured using radiolabeled ATP, at a standard final concentration. The test compounds were added at various concentrations making it possible to establish dose-response curves (activity of the enzyme as a function of the concentration). The IC50 values were calculated from these curves and are given in μM.
CDK5, sequence (Q00535 whole entry, species assumed): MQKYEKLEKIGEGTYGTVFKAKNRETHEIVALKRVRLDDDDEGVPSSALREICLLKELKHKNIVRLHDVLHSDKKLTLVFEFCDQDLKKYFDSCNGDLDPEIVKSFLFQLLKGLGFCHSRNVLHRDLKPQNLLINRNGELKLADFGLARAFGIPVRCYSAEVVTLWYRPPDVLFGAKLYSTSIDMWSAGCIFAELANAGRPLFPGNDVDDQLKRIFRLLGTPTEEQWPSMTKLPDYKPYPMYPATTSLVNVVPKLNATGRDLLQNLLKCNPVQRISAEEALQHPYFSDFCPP
CDK5, sequence (Q15078 99-307 partner, species assumed): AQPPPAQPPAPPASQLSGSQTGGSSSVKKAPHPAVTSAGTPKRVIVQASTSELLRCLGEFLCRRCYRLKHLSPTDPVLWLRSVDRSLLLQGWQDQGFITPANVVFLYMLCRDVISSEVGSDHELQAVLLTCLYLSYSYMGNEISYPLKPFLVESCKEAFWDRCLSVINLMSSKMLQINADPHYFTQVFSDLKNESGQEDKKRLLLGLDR

For the next data set, the target named is CDK1. The experiment in a line: Enzyme inhibition test, radiolabeled ATP, CDK1. Conditions: dose-response curves. Type of data set: biochemical. The method, then:
as §1

SMILES strings stand for the structures. Where “and” joins values, the source holds several entries; their conditions need not be identical. Identical values can stand only once.

A word on the IC50: it is the concentration needed to halve the response being measured. A word on the melting point: it is the temperature of the solid-liquid transition.

In the case of `C=CCC(O)c1cc2ccccc2nc1C#CCOC1CCCCO1` (stereo not drawn) [1-(2-[3-(Tetrahydropyran-2-yloxy)prop-1-ynyl]quinolin-3-yl)but-3-en-1-ol], the “% survival of SHSY cells at 10 μM” value in the data set with SHSY cells is 2%.
For the compound `C[Si](C)(C)C1=C2c3nc4ccccc4cc3C(Cl)CC2CC1=O` (stereo not drawn) [5-Chloro-1-trimethylsilanyl-3,3a,4,5-tetrahydro-2H-cyclopenta[c]acridin-2-one], the IC50 at CDK5 was determined as 63 µM; on CDK1, 3600 nM.
`COc1cc2cc3c(nc2cc1OC)C1=C([Si](C)(C)C)C(=O)CC1CC3O` (stereo not drawn) [5-Hydroxy-8,9-dimethoxy-1-trimethylsilanyl-3,3a,4,5-tetrahydro-2H-cyclopenta[c]acridin-2-one] returned a melting point of 221 to 222 °C. The compound also returned an IC50 on CDK5 of 3.3 µM. Further, at CDK1, the IC50 was 1700 nM.
Turning to `C[Si](C)(C)C1=C2c3nc4ccccc4cc3C(O)CC2CC1=O` (single isomer, unassigned) [5-hydroxy-1-trimethylsilanyl-3,3a,4,5-tetrahydro-2H-cyclopen] [5-hydroxy-1-trimethylsilanyl-3,3a,4,5-tetrahydro-2H-cyclopenta[c]acridin-2-one], at CDK5, the IC50 was 26 µM and 3 µM.
`COc1ccc2cc3c(nc2c1)C1=C([Si](C)(C)C)C(=O)CC1CC3O` (stereo not drawn) [5-Hydroxy-9-methoxy-1-trimethylsilanyl-3,3a,4,5-tetrahydro-2H-cyclopenta[c]acridin-2-one] showed a melting point of 187 °C. The midpoint of inhibition on CDK5, the IC50, lay at 4.8 µM. Further, inhibition on CDK1 was half-maximal at 1600 nM (IC50). Also, in the data set with SHSY cells, the “% survival of SHSY cells at 10 μM” value was determined as 44%.
The compound `COc1ccc2nc3c(cc2c1)C(O)CC1CC(=O)C([Si](C)(C)C)=C31` (stereo not drawn) [5-Hydroxy-8-methoxy-1-trimethylsilanyl-3,3a,4,5-tetrahydro-2H-cyclopenta[c]acridin-2-one] yielded a melting point of 186 °C. This compound also yielded an IC50 against CDK5 of 4 µM. On CDK1, this compound returned an IC50 of 1700 nM.
For `CC(=O)c1cc2ccccc2nc1C#Cc1ccccn1` [1-(2-(Pyridin-2-ylethynyl)quinolin-3-yl)ethanone], in the data set with SHSY cells, the “% survival of SHSY cells at 10 μM” value is given as 4%.
Turning to `CCCCC1=C2c3nc4ccccc4cc3C(=O)CC2CC1=O` (stereo not drawn) [5-Keto-1-butyl-3,3a,4,5-tetrahydro-2H-cyclopenta[c]acridin-2-one], the “% survival of SHSY cells at 10 μM” value with SHSY cells is listed as 38%.
Consider `C[Si](C)(C)C#Cc1nc2ccccc2cc1C(=O)CC[N+](=O)[O-]` [1-(2-Trimethylsilanylethynyl)quinolin-3-yl)propan-3-nitro-1-one], for which, in the data set with SHSY cells, the “% survival of SHSY cells at 10 μM” value came to 47%.
For the compound `C=CC(O)c1cc2ccccc2nc1C#C[Si](C)(C)C` (stereo not drawn) [1-(2-(Trimethylsilanylethynyl)quinolin-3-yl)propan-2-en-1-ol], the “% survival of SHSY cells at 10 μM” value in the data set with SHSY cells worked out at 0.4%.
Compound `C[Si](C)(C)C1=C2c3nc4ccccc4cc3C(O)CC2CC1=O` (racemic) [5-Hydroxy-1-trimethylsilanyl-3,3a,4,5-tetrahydro-2H-cyclopenta[c]acridin-2-one] came in with a melting point of 167 to 168 °C. In addition, on CDK5, the IC50 lay in the range of 1.6 to 2.3 µM. Moreover, the “% survival of SHSY cells at 10 μM” value in the data set on SHSY cells is 85%.

Source of the values: patent US8999955B2, “Tetrahydrocyclopenta[c]acridine derivatives as kinase inhibitors and biological” (Centre National de la Recherche Scientifique, priority 2008, dated 2015).
